Experiment: xn = mol fraction of the nth substance listed

OCCCl + CCO
viscosity [mPa·s], 101.33 kPa
Conditions | x1 = 0.0955 | x1 = 0.2589 | x1 = 0.2902 | x1 = 0.3931 | x1 = 0.4925 | x1 = 0.5932 | x1 = 0.6938 | x1 = 0.7947 | x1 = 0.8984
298.15 K | 1.086 | 1.262 | 1.302 | 1.45 | 1.61 | 1.798 | 2.001 | 2.222 | 2.538
303.15 K | 0.987 | 1.14 | 1.174 | 1.306 | 1.447 | 1.601 | 1.772 | 1.958 | 2.197
308.15 K | 0.897 | 1.034 | 1.065 | 1.179 | 1.297 | 1.432 | 1.579 | 1.735 | 1.932

OCCCl + CCCCO
viscosity [mPa·s], 101.33 kPa
Conditions | x1 = 0.097 | x1 = 0.1922 | x1 = 0.2941 | x1 = 0.3928 | x1 = 0.4937 | x1 = 0.5925 | x1 = 0.6943 | x1 = 0.7957 | x1 = 0.8961
298.15 K | 2.59 | 2.593 | 2.597 | 2.616 | 2.641 | 2.672 | 2.702 | 2.731 | 2.781
303.15 K | 2.29 | 2.25 | 2.271 | 2.288 | 2.316 | 2.363 | 2.38 | 2.4 | 2.428
308.15 K | 2.028 | 2.029 | 2.026 | 2.027 | 2.047 | 2.075 | 2.1 | 2.12 | 2.14

CN1CCC[C@H]1c1cccnc1 + CC(O)CO
100 kPa
Conditions | viscosity [mPa·s]
293.15 K, x1 = 0.1 | 59.35
293.15 K, x1 = 0.3 | 44.85
298.15 K, x1 = 0.6005 | 14.25
303.15 K, x1 = 0.2009 | 28.85
308.15 K, x1 = 0.6005 | 8.935
313.15 K, x1 = 0.7 | 5.605
313.15 K, x1 = 0.7983 | 4.425
318.15 K, x1 = 0.3 | 11.45

O[C@@H]1CO[C@H]2[C@@H]1OC[C@@H]2O + C[N+](C)(C)CC(=O)[O-]
Conditions | viscosity [mPa·s]
298.15 K, 101.33 kPa, x1 = 0.7 | 513.3

CC(C)C#N + Cc1ccccc1
viscosity [mPa·s], 101 kPa
Conditions | x2 = 0.1025 | x2 = 0.2009 | x2 = 0.2987 | x2 = 0.4001 | x2 = 0.4983 | x2 = 0.6008 | x2 = 0.6993 | x2 = 0.801 | x2 = 0.8983
303.15 K | 0.463 | 0.465 | 0.468 | 0.474 | 0.481 | 0.49 | 0.499 | 0.509 | 0.517
308.15 K | 0.434 | 0.437 | 0.439 | 0.445 | 0.45 | 0.46 | 0.468 | 0.478 | 0.486

CN1CCC[C@H]1c1cccnc1 + Oc1ccccc1
viscosity [mPa·s], 101 kPa
Conditions | 308.15 K | 323.15 K
x1 = 0.1004 | 16.28 | 7.224
x1 = 0.206 | 28.72 | 11.46
x1 = 0.2109 | 30.07 | 12.15
x1 = 0.2205 | 29.73 | 11.9
x1 = 0.253 | 29.83 | 12.06
x1 = 0.255 | 29.69 | 12.05
x1 = 0.2629 | 29.4 | 12
x1 = 0.2865 | 28.64 | 11.74
x1 = 0.3078 | 27.55 | 11.63
x1 = 0.4035 | 21.01 | 10.08
x1 = 0.4981 | 16.16 | 8.092
x1 = 0.6636 | 7.423 | 4.797
x1 = 0.7961 | 5.162 | 3.41
x1 = 0.861 | 4.501 | 3.032

CN1CCC[C@H]1c1cccnc1 + CC(=O)O
viscosity [mPa·s], 101 kPa
Conditions | 298.15 K | 323.15 K
x1 = 0.1169 | 23.04 | 7.777
x1 = 0.1985 | 74.98 | 18.12
x1 = 0.2129 | 93.46 | 20.8
x1 = 0.2369 | 109.9 | 21.63
x1 = 0.2489 | 111.9 | 22.09
x1 = 0.2602 | 110.9 | 21.72
x1 = 0.2952 | 94.15 | 19.47
x1 = 0.3062 | 86.56 | 18.65
x1 = 0.3711 | 56.31 | 13.21
x1 = 0.47 | 24.1 | 7.709
x1 = 0.5888 | 15.2 | 5.208
x1 = 0.7306 | 8.751 | 3.61
x1 = 0.8435 | 7.072 | 3.085

CCCCCCCCCCC + CCCCCCCCCCO
viscosity [mPa·s], 100 kPa
Conditions | x1 = 0.1003 | x1 = 0.2003 | x1 = 0.3005 | x1 = 0.3972 | x1 = 0.4989 | x1 = 0.5997 | x1 = 0.7007 | x1 = 0.8 | x1 = 0.8987
293.15 K | 10.47 | 7.7 | 5.667 | 4.374 | 3.193 | 2.542 | 1.992 | 1.626 | 1.378
298.15 K | 8.685 | 6.471 | 4.833 | 3.775 | 2.8 | 2.254 | 1.793 | 1.486 | 1.256
303.15 K | 7.267 | 5.479 | 4.152 | 3.283 | 2.477 | 2.015 | 1.628 | 1.368 | 1.154
308.15 K | 6.125 | 4.678 | 3.591 | 2.873 | 2.202 | 1.814 | 1.508 | 1.252 | 1.06
313.15 K | 5.2 | 4.018 | 3.127 | 2.533 | 1.97 | 1.644 | 1.376 | 1.149 | 0.979
318.15 K | 4.447 | 3.475 | 2.741 | 2.26 | 1.773 | 1.518 | 1.256 | 1.058 | 0.908
323.15 K | 3.825 | 3.02 | 2.418 | 2.006 | 1.655 | 1.382 | 1.152 | 0.975 | 0.846

From the CheMixHub viscosity set
